The assay deals with T1, USP25 (USP25-His6, Boston Biochem E-546) (Homo sapiens, UniProt Q9UHP3).
T1 construct: His6 (C); purchased Boston Biochem E-546
T1 sequence (Q9UHP3 1-1055): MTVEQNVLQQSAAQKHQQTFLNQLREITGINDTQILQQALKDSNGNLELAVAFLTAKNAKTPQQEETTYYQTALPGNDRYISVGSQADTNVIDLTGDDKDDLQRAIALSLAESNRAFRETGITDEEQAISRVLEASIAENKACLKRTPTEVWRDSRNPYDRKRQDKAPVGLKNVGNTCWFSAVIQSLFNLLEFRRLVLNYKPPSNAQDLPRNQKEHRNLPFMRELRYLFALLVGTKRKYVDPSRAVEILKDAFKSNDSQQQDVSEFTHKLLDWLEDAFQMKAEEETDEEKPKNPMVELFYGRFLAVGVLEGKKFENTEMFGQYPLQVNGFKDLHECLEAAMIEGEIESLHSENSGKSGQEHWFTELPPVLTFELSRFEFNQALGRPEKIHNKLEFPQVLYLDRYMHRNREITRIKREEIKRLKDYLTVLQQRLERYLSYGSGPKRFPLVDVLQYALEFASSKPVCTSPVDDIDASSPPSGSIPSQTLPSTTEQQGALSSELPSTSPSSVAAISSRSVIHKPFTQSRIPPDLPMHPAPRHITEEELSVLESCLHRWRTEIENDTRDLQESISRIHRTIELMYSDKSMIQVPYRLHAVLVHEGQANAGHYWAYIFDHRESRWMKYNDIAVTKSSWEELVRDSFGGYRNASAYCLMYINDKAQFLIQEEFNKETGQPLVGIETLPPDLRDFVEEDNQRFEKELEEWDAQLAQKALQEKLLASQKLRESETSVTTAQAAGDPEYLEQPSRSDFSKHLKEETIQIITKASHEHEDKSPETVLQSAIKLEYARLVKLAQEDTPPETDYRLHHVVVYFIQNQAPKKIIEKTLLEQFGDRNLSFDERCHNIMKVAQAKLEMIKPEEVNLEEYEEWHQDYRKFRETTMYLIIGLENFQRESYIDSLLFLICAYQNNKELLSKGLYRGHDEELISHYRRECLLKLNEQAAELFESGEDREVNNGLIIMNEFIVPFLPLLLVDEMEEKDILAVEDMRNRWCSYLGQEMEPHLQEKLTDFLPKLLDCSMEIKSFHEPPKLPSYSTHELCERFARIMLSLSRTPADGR
The experiment in a line: Ubiquitin-Rhodamine 110 Assay for USP25 Activity, Example A-3. Format: biochemical. Conditions: Ubiquitin-Rhodamine 110 assay, Example A-3; read-out: USP25 A-3 IC50 range. Summed up:
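USP25-His6 ([…] final as stated) preincubated 30 min with compound (10-point, 25 μM to 1.3 nM), then Ub-Rh110 at 25 nM (<<Km) added in pH 8.0 Tris buffer with BME, BGG and Triton X-100. Reaction stopped after 45 min at room temperature with 10 mM citric acid; fluorescence read at 485/535 nm.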
Consider `Cc1ccc2c(N)c(C(=O)N[C@H]3COc4cc(N5CCNCC5)ccc4[C@H]3C)sc2n1` (single isomer, unassigned) [Example 11-15], for which the IC50 is more than 2000 nM.

As to `Cc1ccc2c(N)c(C(=O)N[C@H]3COc4cc(N5CCNCC5)ccc4[C@@H]3C)sc2n1` (single isomer, unassigned) [Example 11-16], the IC50 is more than 2000 nM.

Turning to `Cc1ccc2c(N)c(C(=O)N[C@H]3COc4cc(N5CCNCC5)ccc4[C@@H]3C)sc2n1` (single isomer, unassigned) [Example 11-17], the concentration for half-maximal inhibition (IC50) is more than 2000 nM.

With `Cc1ccc2c(N)c(C(=O)N[C@@H]3COc4cc(N5CCNCC5)ccc4[C@@H]3C)sc2n1` (single isomer, unassigned) [Example 11-18], the 50% inhibitory concentration (IC50) was in the range of 200 to 2000 nM.

As for `Cc1cnc2c(N)c(C(=O)N[C@H]3CCc4cc(N5CCNCC5)ccc4C3)sc2n1` (single isomer, unassigned) [Example 11-19], the IC50 lay in the range of 200 to 2000 nM.

Take `Cc1cnc2c(N)c(C(=O)N[C@@H]3CCc4cc(N5CCNCC5)ccc4C3)sc2n1` (single isomer, unassigned) [Example 11-20]: the IC50 is more than 2000 nM.

On to `Cc1ccc2c(N)c(C(=O)N[C@H]3CCc4cc(N5CCNCC5)ccc4C3)sc2n1` (single isomer, unassigned) [Example 11-21], for which the IC50 is more than 2000 nM.

For the molecule `Cc1ccc2c(N)c(C(=O)N[C@@H]3CCc4cc(N5CCNCC5)ccc4C3)sc2n1` (single isomer, unassigned) [Example 11-22], the IC50 lay within 200 to 2000 nM.

In the case of `CN[C@H]1CCN(c2ccc3c(c2)CC[C@H](NC(=O)c2sc4nc(C)cnc4c2N)C3)C1` (single isomer, unassigned) [Example 11-25], the IC50 lay in the range of 200 to 2000 nM.

Consider `CN[C@H]1CCN(c2ccc3c(c2)CC[C@@H](NC(=O)c2sc4nc(C)cnc4c2N)C3)C1` (single isomer, unassigned) [Example 11-26], for which the IC50 was more than 2000 nM.

On to `CN[C@@H]1CCN(c2ccc3c(c2)CC[C@H](NC(=O)c2sc4nc(C)cnc4c2N)C3)C1` (single isomer, unassigned) [Example 11-27], for which the IC50 lay within 200 to 2000 nM.

With `CN[C@@H]1CCN(c2ccc3c(c2)CC[C@@H](NC(=O)c2sc4nc(C)cnc4c2N)C3)C1` (single isomer, unassigned) [Example 11-28], the IC50 is more than 2000 nM.

For `Cc1cnc2c(N)c(C(=O)N[C@H]3CCc4cc(N5C[C@@H]6C[C@H]5CN6)ccc4C3)sc2n1` (single isomer, unassigned) [Example 11-29], the IC50 was in the range of 200 to 2000 nM.

In the case of `Cc1cnc2c(N)c(C(=O)N[C@@H]3CCc4cc(N5C[C@@H]6C[C@H]5CN6)ccc4C3)sc2n1` (single isomer, unassigned) [Example 11-30], the IC50 lay within 200 to 2000 nM.

Take `Cc1cnc2c(N)c(C(=O)N[C@H]3CCc4cc(N5C[C@H]6C[C@@H]5CN6)ccc4C3)sc2n1` (single isomer, unassigned) [Example 11-31]: the IC50 is 200 to 2000 nM.

In the case of `Cc1cnc2c(N)c(C(=O)N[C@@H]3CCc4cc(N5C[C@H]6C[C@@H]5CN6)ccc4C3)sc2n1` (single isomer, unassigned) [Example 11-32], the concentration for half-maximal inhibition (IC50) is 200 to 2000 nM.

For `Cc1nc2sc(C(=O)N[C@H]3CCc4cc(N5CCNCC5)ccc4C3)c(N)c2s1` (single isomer, unassigned) [Example 11-33], the 50% inhibitory concentration (IC50) was in the range of 200 to 2000 nM.

Turning to `Cc1nc2sc(C(=O)N[C@@H]3CCc4cc(N5CCNCC5)ccc4C3)c(N)c2s1` (single isomer, unassigned) [Example 11-34], the IC50 was more than 2000 nM.

With `Cc1cnc2c(N)c(C(=O)N[C@@H]3CCc4cc(N5CCNCC5)cc(F)c4C3)sc2n1` (single isomer, unassigned) [Example 11-37], the IC50 was more than 2000 nM.

With `Cc1cnc2c(N)c(C(=O)N[C@H]3CCc4cc(N5CCNCC5)cc(F)c4C3)sc2n1` (single isomer, unassigned) [Example 11-38], the concentration for half-maximal inhibition (IC50) was in the range of 200 to 2000 nM.

Take `Cc1ccc2c(N)c(C(=O)N[C@H]3CCc4cc(N5CC6CNCC(C5)O6)cc(F)c4C3)sc2n1` (single isomer, unassigned) [Example 11-39]: the IC50 was more than 2000 nM.

As for `Cc1ccc2c(N)c(C(=O)N[C@@H]3CCc4cc(N5CC6CNCC(C5)O6)cc(F)c4C3)sc2n1` (single isomer, unassigned) [Example 11-40], the concentration for half-maximal inhibition (IC50) lay within 50 to 200 nM.

As for `Cc1ccc2c(N)c(C(=O)N[C@@H]3CCc4c(C#N)c(N5CCNCC5)cc(F)c4C3)sc2n1` (single isomer, unassigned) [Example 14-9], the 50% inhibitory concentration (IC50) was more than 2000 nM.

As for `Cc1ccc2c(N)c(C(=O)N[C@H]3CCc4c(C#N)c(N5CCNCC5)cc(F)c4C3)sc2n1` (single isomer, unassigned) [Example 14-10], the IC50 lay within 200 to 2000 nM.

Consider `Cc1cnc2c(N)c(C(=O)N[C@@H]3CCc4c(C#N)c(N5CCNCC5)cc(F)c4C3)sc2n1` (single isomer, unassigned) [Example 14-11], for which the IC50 was in the range of 200 to 2000 nM.

With `Cc1cnc2c(N)c(C(=O)N[C@H]3CCc4c(C#N)c(N5CCNCC5)cc(F)c4C3)sc2n1` (single isomer, unassigned) [Example 14-12], the half-maximal inhibitory concentration (IC50) was more than 2000 nM.

Regarding `Cc1nc2sc(C(=O)N[C@@H]3CCc4c(C#N)c(N5CCNCC5)cc(F)c4C3)c(N)c2s1` (single isomer, unassigned) [Example 14-13], the 50% inhibitory concentration (IC50) is more than 2000 nM.

Take `Cc1nc2sc(C(=O)N[C@H]3CCc4c(C#N)c(N5CCNCC5)cc(F)c4C3)c(N)c2s1` (single isomer, unassigned) [Example 14-14]: the IC50 was in the range of 200 to 2000 nM.

Consider `Cc1ccc2c(N)c(C(=O)N[C@H]3CCc4c(C#N)c(N5CC6CNCC(C5)O6)cc(F)c4C3)sc2n1` (single isomer, unassigned) [Example 14-15], for which the concentration for half-maximal inhibition (IC50) was 1 to 50 nM.

Turning to `Cc1ccc2c(N)c(C(=O)N[C@@H]3CCc4c(C#N)c(N5CC6CNCC(C5)O6)cc(F)c4C3)sc2n1` (single isomer, unassigned) [Example 14-16], the IC50 lay within 200 to 2000 nM.

Take `Cc1ccc2c(N)c(C(=O)N[C@H]3CCc4c(C#N)c(N5CC6CCC(C5)N6)cc(F)c4C3)sc2n1` (single isomer, unassigned) [Example 14-17]: the concentration for half-maximal inhibition (IC50) was 1 to 50 nM.

As to `Cc1ccc2c(N)c(C(=O)N[C@@H]3CCc4c(C#N)c(N5CC6CCC(C5)N6)cc(F)c4C3)sc2n1` (single isomer, unassigned) [Example 14-18], the IC50 was more than 2000 nM.

On to `Cc1cnc2c(N)c(C(=O)N[C@H]3CCc4c(C#N)c(N5CC6CCC(C5)N6)cc(F)c4C3)sc2n1` (single isomer, unassigned) [Example 14-19], for which the IC50 was in the range of 50 to 200 nM.

For `Cc1cnc2c(N)c(C(=O)N[C@@H]3CCc4c(C#N)c(N5CC6CCC(C5)N6)cc(F)c4C3)sc2n1` (single isomer, unassigned) [Example 14-20], the IC50 is more than 2000 nM.

Regarding `Cc1nc2sc(C(=O)N[C@H]3CCc4c(C#N)c(N5CC6CCC(C5)N6)cc(F)c4C3)c(N)c2s1` (single isomer, unassigned) [Example 14-21], the IC50 lay within 50 to 200 nM.

In the case of `CO[C@H]1CN(c2cc(F)c3c(c2C#N)CC[C@H](NC(=O)c2sc4nc(C)ccc4c2N)C3)C[C@@H]1N` (single isomer, unassigned) [Example 14-23], the half-inhibitory concentration (IC50) lay in the range of 200 to 2000 nM.

`CO[C@H]1CN(c2cc(F)c3c(c2C#N)CC[C@@H](NC(=O)c2sc4nc(C)ccc4c2N)C3)C[C@@H]1N` (single isomer, unassigned) [Example 14-24]: the half-maximal inhibitory concentration (IC50) is more than 2000 nM.

In the case of `Cc1cnc2c(N)c(C(=O)N[C@@H]3CCc4c(ccc(N5CCNCC5)c4F)C3)sc2n1` (single isomer, unassigned) [Example 21-9], the IC50 fell in the range of 200 to 2000 nM.

`Cc1cnc2c(N)c(C(=O)N[C@H]3CCc4c(ccc(N5CCNCC5)c4F)C3)sc2n1` (single isomer, unassigned) [Example 21-10]: the IC50 is more than 2000 nM.

As to `Cc1cnc2c(N)c(C(=O)N[C@@H]3CCc4cc(N5CCNCC5)c(F)cc4C3)sc2n1` (single isomer, unassigned) [Example 21-11], the IC50 is more than 2000 nM.

For the molecule `Cc1cnc2c(N)c(C(=O)N[C@H]3CCc4cc(N5CCNCC5)c(F)cc4C3)sc2n1` (single isomer, unassigned) [Example 21-12], the IC50 fell in the range of 200 to 2000 nM.

For the molecule `Cc1ccc2c(N)c(C(=O)N[C@H]3CCc4c(F)c(N5CC6CCC(C5)N6)cc(F)c4C3)sc2n1` (single isomer, unassigned) [Example 22-5], the IC50 lay in the range of 1 to 50 nM.

Usually IC50 stands for the concentration that gives 50% inhibition.

The record behind these values is patent publication US12162888B2, “Carboxamides as ubiquitin-specific protease inhibitors” (Valo Early Discovery, Inc., priority 2018, dated 2024).
